Laboratory results as given in the supplement of paper PMC11451515.

How the values were obtained:
Details in all cases: 48 h
SEM cells [1] = assay: cell viability relative to DMSO control; higher = less cytotoxic
Outline: (§1)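 Before seeding, each leukemia line was adapted for at least four passages in each medium. NOMO1 or SEM cells (500 cells/well) and P12-Ichikawa cells (1000 cells/well) went into 1536-well plates at 5 μl, then received library compounds in DMSO by pin dosing across 11 threefold concentrations, 47 μM to 0.79 nM. Readout was CellTiter-Glo One luminescence after 48 h at 37°C, and viability is given as a per-plate percentage of DMSO wells, with cell-free wells as background.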

NOMO1 [2] = assay: AUC of viability dose-response curve (% viability x log10 dose units); higher = less sensitive
Outline: (§2)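 Leukemia cells adapted to each medium were seeded at 500 or 1000 cells/well in 1536-well plates and dosed with library compounds in DMSO at 11 threefold doses from 47 μM to 0.79 nM for 48 h at 37°C. CellTiter-Glo One luminescence was normalised per plate to DMSO and cell-free wells, then fitted with a four-parameter log-logistic model over log10 doses. Area under the curve was taken from this fit by the trapezoidal rule, with curves above full viability scaled and curves failing quality control removed.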

P12-Ichikawa [3] = assay: as above
Outline: as §2

SEM cells [4] = assay: as above
Outline: as §2

NOMO1 [5] = assay: cell viability relative to DMSO control; higher = less cytotoxic
Outline: as §1

P12-Ichikawa [6] = assay: as above
Outline: as §1

[7] = HPLM + 10% dialyzed FBS, 0.000781 µM
[8] = HPLM + 10% dialyzed FBS, 0.00234 µM
[9] = HPLM + 10% dialyzed FBS, 0.00702 µM
[10] = HPLM + 10% dialyzed FBS, 0.0211 µM
[11] = HPLM + 10% dialyzed FBS, 0.0632 µM
[12] = HPLM + 10% dialyzed FBS, 0.19 µM
[13] = HPLM + 10% dialyzed FBS, 0.569 µM
[14] = HPLM + 10% dialyzed FBS, 1.71 µM
[15] = HPLM + 10% dialyzed FBS, 5.12 µM
[16] = HPLM + 10% dialyzed FBS, 15.4 µM
[17] = HPLM + 10% dialyzed FBS, 46.1 µM
[18] = RPMI 5 mM glucose + 10% FBS, 0.000781 µM
[19] = RPMI 5 mM glucose + 10% FBS, 0.00234 µM
[20] = RPMI 5 mM glucose + 10% FBS, 0.00702 µM
[21] = RPMI 5 mM glucose + 10% FBS, 0.0211 µM
[22] = RPMI 5 mM glucose + 10% FBS, 0.0632 µM
[23] = RPMI 5 mM glucose + 10% FBS, 0.19 µM
[24] = RPMI 5 mM glucose + 10% FBS, 0.569 µM
[25] = RPMI 5 mM glucose + 10% FBS, 1.71 µM
[26] = RPMI 5 mM glucose + 10% FBS, 5.12 µM
[27] = RPMI 5 mM glucose + 10% FBS, 15.4 µM
[28] = RPMI 5 mM glucose + 10% FBS, 46.1 µM
[29] = RPMI 5 mM glucose + 10% dialyzed FBS
[30] = RPMI 5 mM glucose + 10% dialyzed FBS, 0.000781 µM
[31] = RPMI 5 mM glucose + 10% dialyzed FBS, 0.00234 µM
[32] = RPMI 5 mM glucose + 10% dialyzed FBS, 0.00702 µM
[33] = RPMI 5 mM glucose + 10% dialyzed FBS, 0.0211 µM
[34] = RPMI 5 mM glucose + 10% dialyzed FBS, 0.0632 µM
[35] = RPMI 5 mM glucose + 10% dialyzed FBS, 0.19 µM
[36] = RPMI 5 mM glucose + 10% dialyzed FBS, 0.569 µM
[37] = RPMI 5 mM glucose + 10% dialyzed FBS, 1.71 µM
[38] = RPMI 5 mM glucose + 10% dialyzed FBS, 5.12 µM
[39] = RPMI 5 mM glucose + 10% dialyzed FBS, 15.4 µM
[40] = RPMI 5 mM glucose + 10% dialyzed FBS, 46.1 µM

## C[C@]\12CCC(=O)\C=C1[C@@H]3C[C@@H]3[C@@H]4[C@@H]2CC[C@@]5(C)[C@H]4[C@@H]6C[C@@H]6[C@@]57CCC(=O)O7
SEM cells [1]; [7]
  cell viability: 89.1%
SEM cells [1]; [8]
  cell viability: 97.2%
SEM cells [1]; [9]
  cell viability: 107%
SEM cells [1]; [10]
  cell viability: 123%
SEM cells [1]; [11]
  cell viability: 120%
SEM cells [1]; [12]
  cell viability: 112%
SEM cells [1]; [13]
  cell viability: 106%
SEM cells [1]; [14]
  cell viability: 107%
SEM cells [1]; [15]
  cell viability: 133%
SEM cells [1]; [16]
  cell viability: 107%
SEM cells [1]; [17]
  cell viability: 104%
SEM cells [1]; [18]
  cell viability: 98.6%
SEM cells [1]; [19]
  cell viability: 111%
SEM cells [1]; [20]
  cell viability: 115%
SEM cells [1]; [21]
  cell viability: 117%
SEM cells [1]; [22]
  cell viability: 137%
SEM cells [1]; [23]
  cell viability: 146%
SEM cells [1]; [24]
  cell viability: 124%
SEM cells [1]; [25]
  cell viability: 134%
SEM cells [1]; [26]
  cell viability: 119%
SEM cells [1]; [27]
  cell viability: 125%
SEM cells [1]; [28]
  cell viability: 146%
NOMO1 [2]; HPLM + 10% dialyzed FBS
  AUC of viability dose-response curve: 469
NOMO1 [2]; RPMI 5 mM glucose + 10% FBS
  AUC of viability dose-response curve: 477
NOMO1 [2]; [29]
  AUC of viability dose-response curve: 471
P12-Ichikawa [3]; HPLM + 10% dialyzed FBS
  AUC of viability dose-response curve: 474
P12-Ichikawa [3]; RPMI 5 mM glucose + 10% FBS
  AUC of viability dose-response curve: 468
P12-Ichikawa [3]; [29]
  AUC of viability dose-response curve: 471
SEM cells [4]; HPLM + 10% dialyzed FBS
  AUC of viability dose-response curve: 450
SEM cells [4]; RPMI 5 mM glucose + 10% FBS
  AUC of viability dose-response curve: 451
SEM cells [4]; [29]
  AUC of viability dose-response curve: 468

## O[C@@H]1[C@@H](O)[C@H](O[C@@H]([C@H]1O)C(O)=O)OC2=C(O)C(=C3C(=O)\C=C(/OC3=C2)C4=CC=CC=C4)O
NOMO1 [2]; HPLM + 10% dialyzed FBS
  AUC of viability dose-response curve: 445
NOMO1 [2]; RPMI 5 mM glucose + 10% FBS
  AUC of viability dose-response curve: 427
NOMO1 [2]; [29]
  AUC of viability dose-response curve: 460
P12-Ichikawa [3]; HPLM + 10% dialyzed FBS
  AUC of viability dose-response curve: 447
P12-Ichikawa [3]; RPMI 5 mM glucose + 10% FBS
  AUC of viability dose-response curve: 448
P12-Ichikawa [3]; [29]
  AUC of viability dose-response curve: 460
SEM cells [4]; HPLM + 10% dialyzed FBS
  AUC of viability dose-response curve: 446
SEM cells [4]; RPMI 5 mM glucose + 10% FBS
  AUC of viability dose-response curve: 409
SEM cells [4]; [29]
  AUC of viability dose-response curve: 425

## COc1ccc([S+](=O)([O-])Nc2cccnc2Nc2ccc(O)cc2)cc1
NOMO1 [5]; [18]
  cell viability: 117%
NOMO1 [5]; [19]
  cell viability: 107%
NOMO1 [5]; [20]
  cell viability: 116%
NOMO1 [5]; [21]
  cell viability: 115%
NOMO1 [5]; [22]
  cell viability: 121%
NOMO1 [5]; [23]
  cell viability: 101%
NOMO1 [5]; [24]
  cell viability: 129%
NOMO1 [5]; [25]
  cell viability: 97.6%
NOMO1 [5]; [26]
  cell viability: 28.6%
NOMO1 [5]; [27]
  cell viability: 23.2%
NOMO1 [5]; [28]
  cell viability: 29.4%
NOMO1 [5]; [30]
  cell viability: 119%
NOMO1 [5]; [31]
  cell viability: 113%
NOMO1 [5]; [32]
  cell viability: 110%
NOMO1 [5]; [33]
  cell viability: 111%
NOMO1 [5]; [34]
  cell viability: 114%
NOMO1 [5]; [35]
  cell viability: 110%
NOMO1 [5]; [36]
  cell viability: 116%
NOMO1 [5]; [37]
  cell viability: 114%
NOMO1 [5]; [38]
  cell viability: 71.5%
NOMO1 [5]; [39]
  cell viability: 36%
NOMO1 [5]; [40]
  cell viability: 33.5%
P12-Ichikawa [6]; [7]
  cell viability: 124%
P12-Ichikawa [6]; [8]
  cell viability: 118%
P12-Ichikawa [6]; [9]
  cell viability: 124%
P12-Ichikawa [6]; [10]
  cell viability: 119%
P12-Ichikawa [6]; [11]
  cell viability: 122%
P12-Ichikawa [6]; [12]
  cell viability: 125%
P12-Ichikawa [6]; [13]
  cell viability: 129%
P12-Ichikawa [6]; [14]
  cell viability: 122%
P12-Ichikawa [6]; [15]
  cell viability: 17.2%
P12-Ichikawa [6]; [16]
  cell viability: 14.8%
P12-Ichikawa [6]; [17]
  cell viability: 10.8%
P12-Ichikawa [6]; [18]
  cell viability: 125%
P12-Ichikawa [6]; [19]
  cell viability: 121%
P12-Ichikawa [6]; [20]
  cell viability: 116%
P12-Ichikawa [6]; [21]
  cell viability: 126%
P12-Ichikawa [6]; [22]
  cell viability: 120%
P12-Ichikawa [6]; [23]
  cell viability: 119%
P12-Ichikawa [6]; [24]
  cell viability: 118%
P12-Ichikawa [6]; [25]
  cell viability: 122%
P12-Ichikawa [6]; [26]
  cell viability: 22.3%
P12-Ichikawa [6]; [27]
  cell viability: 17.7%
P12-Ichikawa [6]; [28]
  cell viability: 17.3%
P12-Ichikawa [6]; [30]
  cell viability: 117%
P12-Ichikawa [6]; [31]
  cell viability: 128%
P12-Ichikawa [6]; [32]
  cell viability: 118%
P12-Ichikawa [6]; [33]
  cell viability: 114%
P12-Ichikawa [6]; [34]
  cell viability: 121%
P12-Ichikawa [6]; [35]
  cell viability: 113%
P12-Ichikawa [6]; [36]
  cell viability: 108%
P12-Ichikawa [6]; [37]
  cell viability: 113%
P12-Ichikawa [6]; [38]
  cell viability: 39%
P12-Ichikawa [6]; [39]
  cell viability: 28%
P12-Ichikawa [6]; [40]
  cell viability: 24%
SEM cells [1]; [7]
  cell viability: 124%
SEM cells [1]; [8]
  cell viability: 127%
SEM cells [1]; [9]
  cell viability: 114%
SEM cells [1]; [10]
  cell viability: 116%
SEM cells [1]; [11]
  cell viability: 127%
SEM cells [1]; [12]
  cell viability: 115%
SEM cells [1]; [13]
  cell viability: 123%
SEM cells [1]; [14]
  cell viability: 96.1%
SEM cells [1]; [15]
  cell viability: 20.9%
SEM cells [1]; [16]
  cell viability: 25.5%
SEM cells [1]; [17]
  cell viability: 21.6%
SEM cells [1]; [18]
  cell viability: 76.2%
SEM cells [1]; [19]
  cell viability: 82.1%
SEM cells [1]; [20]
  cell viability: 65.8%
SEM cells [1]; [21]
  cell viability: 86.4%
SEM cells [1]; [22]
  cell viability: 77.6%
SEM cells [1]; [23]
  cell viability: 82.6%
SEM cells [1]; [24]
  cell viability: 77.1%
SEM cells [1]; [25]
  cell viability: 79.1%
SEM cells [1]; [26]
  cell viability: 36.2%
SEM cells [1]; [27]
  cell viability: 17.5%
SEM cells [1]; [28]
  cell viability: 13.5%
SEM cells [1]; [30]
  cell viability: 114%
SEM cells [1]; [31]
  cell viability: 109%
SEM cells [1]; [32]
  cell viability: 109%
SEM cells [1]; [33]
  cell viability: 105%
SEM cells [1]; [34]
  cell viability: 102%
SEM cells [1]; [35]
  cell viability: 124%
SEM cells [1]; [36]
  cell viability: 113%
SEM cells [1]; [37]
  cell viability: 96.5%
SEM cells [1]; [38]
  cell viability: 47.5%
SEM cells [1]; [39]
  cell viability: 23.4%
SEM cells [1]; [40]
  cell viability: 20.2%
NOMO1 [2]; HPLM + 10% dialyzed FBS
  AUC of viability dose-response curve: 387
NOMO1 [2]; RPMI 5 mM glucose + 10% FBS
  AUC of viability dose-response curve: 379
NOMO1 [2]; [29]
  AUC of viability dose-response curve: 410
P12-Ichikawa [3]; HPLM + 10% dialyzed FBS
  AUC of viability dose-response curve: 372
P12-Ichikawa [3]; RPMI 5 mM glucose + 10% FBS
  AUC of viability dose-response curve: 377
P12-Ichikawa [3]; [29]
  AUC of viability dose-response curve: 388
